According to patent US20230190887A1, “TARGETING G3BP AGGREGATION TO PREVENT NEURODEGENERATION” (priority 2019, published 2023):

Key:
[1] = test system: G3BP1 and pTDP-43 particles in C9ORF72 iPS-MN axons; test: G3BP1/pTDP-43 RNP condensates in iPS-MN axons; format: cell-based, human; settings: peptide exclusively in the axonal compartment of the MFC
Description: Formation of G3BP1-positive RNP condensates is strongly associated with repressed RNA translation, see Sahoo, P. K. et al. A Ca^2+ dependent switch activates axonal casein kinase 2α translation and drives G3BP1 granule disassembly for axon regeneration. Curr. Biol. 30, 4882-4895.e6 (2020), and altered mRNA transport, see Liao, Y. C. et al. RNA granules hitchhike on lysosomes for long-distance transport, using Annexin All as a molecular tether. Cell 179, 147-164.e20 (2019), leading to reduced protein synthesis, see Sahoo, P. K. et al. Axonal G3BP1 stress granule protein limits axonal mRNA translation and nerve regeneration. Nat. Commun. 9, 1-14 (2018). […] By quantifying OPP puncta density within in vitro NMJs, we identified robust protein synthesis within control co-cultures, while protein synthesis in TDPΔNLS NMJs was severely impaired (FIG. 19 3k-l). […] Unpaired-t-test, two-sided ****p<0.0001. c Images and d-f quantification of NFH, pTDP-43 and G3BP1 and their colocalization in C9ORF72 iPS-MN axons either treated or not with G3BP1 peptide. Quantifications of G3BP1 particle density (d), G3BP1-pTDP-43 coloc-particle density (e) and G3BP1-pTDP-43 coloc-particle size (f) from C9ORF72 and control iPS-MN axons, either treated or not with G3BP1 peptide. […] One-way-ANOVA with Holm-Sidak correction. […], ****p<0.0001. i Images and j quantification of OPP puncta density in control or ΔNLS MN axons. […]

[2] = test system: NMJs of TDPΔNLS MN-muscle co-cultures; test: TMRE mitochondrial activity in in vitro NMJs; format: cell-based, mouse; settings: 20 μM peptide in NMJ compartment
Procedure: Muscles in co-culture were kept in BA medium for 7 days. To aid NMJ formation, media in all compartments was then replaced to poor neurobasal (PNB) medium, which contained only 1% P/S and 1% Glutamax. Doxycycline was applied to TDP-43ΔNLS cultures only at the proximal MN compartment, in a concentration of 0.1 μg/mL, immediately after plating and throughout the entire experimental timeline. For TDPΔNLS recovery experiments (FIGS. 7-8), Doxycline was […] at the proximal MN compartment after 5 DIV, and the cultures were grown until 11 DIV. For G3BP1 peptide treatment (FIG. 21 at i-j, FIG. 24 at f), 20 μM G3BP1 peptides were added exclusively to the distal compartment, starting after 7 DIV.
Mitochondrial membrane potential was assessed with Tetramethylrhodamine Ethyl, Ester (TMRE; Thermo Fisher) dye. Cultures were incubated with 20 nM TMRE for 30 min in CO2 incubator, then washed 3 times with culture medium. Images of TMRE labeled axons in the distal compartment of MFCs were acquired before and after cultures were treated with Anisomycin (40 μM) or NaAsO2 (250 μM), Cycloheximide (150 μM) in ×60 magnification. […] The intensity of TMRE fluorescence in axonal mitochondria was measured using FIJI, and the fraction of change post/pretreatment was calculated for each image field.

## YGNKKNNNQNNN-VVEPEPEPEPEPEPEPVSE [G3BP1 190-208 peptide]
[1]
  G3BP1/pTDP43 particle size: Reduce G3BP1/pTDP43 particle size
  pTDP43 RNP-condensate density: Reduce
[2]
  pre-synaptic TMRE signal (mitochondria activity) in NMJs: recovered
